PubChem BioAssay AID1963438 (Molecular Pharmacology Branch, DTP, NCI, 2024)

Test system: NCI-H510 multicellular tumor spheroid growth, % test/control
Experiment: Anticancer human tumor NCI-H510 cell line growth inhibition [Asc];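 note: spheroids exposed to agents for 7 days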;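 for viability, T/C: 100% = DMSO vehicle control wells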
Conditions: for IC50: curve of first compound; for viability, T/C: stronger effect = lower value
Protocol: Multicellular complex tumor spheroid response to apoptosis pathway targeting inhibitors Alrizomadlin, Pelcitoclax, and Dasminapant in combination with a variety of drugs and investigational agents in selected tumor cell lines
The MDM2 inhibitor alrizomadlin, the Bcl-2/Bcl-xL inhibitor pelcitoclax, and the IAPs inhibitor dasminapant were evaluated both individually and in combination with standard of care and investigational anticancer small molecules within a complex spheroid model of solid tumors. . Complex spheroids include a stromal component modeled by human endothelial cells (HUVEC) and fibroblasts modeled by human mesenchymal stem cells (MSCs). The concentration ranges selected for each drug and investigational agent were based upon clinically achievable concentrations if the clinical Cmax of the agent was known.
Compounds. The drugs and investigational agents: alrizomadlin (APG-115; NSC831270), pelcitoclax (APG-1252; NSC835773), dasminapant (APG-1387;NSC834197), TAK-243 (NSC785004), copanlisib (NSC809693), olaparib (NSC753686), talazoparib (NSC767125), cobimetinib (NSC 768068), eltanexor (KPT-8602, NSC 794443), abemaciclib (NSC 768073), sotorasib (NSC818433), adagrasib (NSC 831453), MRTX-1133 (NSC 836407), Iadademestat (ORY1001, NSC 806812), and RMC-4630 (NSC839698), were obtained from the NCI Developmental Therapeutics Program Chemical Repository. The FDA-approved anticancer drug set is available from the Developmental Therapeutics Program at https://dtp.cancer.gov/organization/dscb/obtaining/available plates.htm. […] The stock solutions were prepared in dimethyl sulfoxide (DMSO, Sigma-Aldrich, St. Louis, MO, cat. D2650) at 800-fold the tested concentration and stored at -70 degrees C prior to their use. All drugs and investigational agents were tested over a range starting from a high concentration at or near the clinical Cmax and decreasing in half-log increments. If the clinical Cmax for an agent had not been determined, the highest concentration tested was 10 microM.
The patient-derived cancer (PDC) cell lines include five colon adenocarcinomas: 186277-243-T-J2-PDC, 616215-338-R-J1-PDC, 439559-082-T-J2-PDC, 463943-066-T-J2-PDC, and 519858-162-T-J1-PDC; three pancreatic carcinomas: 323965-272-R-J2-PDC, 521955-158-R6-J3-PDC, and 521955-158-R2-J5-PDC; two uterine sarcomas: 327498-152-R-J2-PDC and 993429-296-R-J1-PDC; two rhabdomyosarcomas: 755483-174-R-J1-PDC and 772245-204-R-J1-PDC; two soft tissue sarcomas: 126254-015-R-J1-PDC and 494315-158-R-J1-PDC; two malignant fibrous histiocytomas: 317291-083-R-J1-PDC and 596521-263-R-J1-PDC; two breast carcinomas: 171881-019-R-J1-PDC and 885512-296-R-J2-PDC; and one ovarian carcinoma: 6556581-035-R-J-PDC were obtained from the NCI PDMR, (https://pdmr.cancer.gov). The established cell lines HSSY-2 synovial sarcoma (RRID:CVCL 8719), SYO-1 synovial sarcoma (RRID:CVCL_7146), MPNST malignant peripheral neural sheath tumor were obtained from the Sloan Kettering Institute. The following established cell lines were purchased from the American Type Culture Collection (ATCC, Manassas, VA), Sor the received from the NCI repository:, PANC-1 pancreatic carcinoma (CRL-1469, RRID:CVCL_0480), OVCAR-5 ovarian carcinoma (RRID:CVCL_1628), OVCAR-8 ovarian carcinoma (RRID:CVCL_1629), , MCF-7 breast carcinoma (CRL-12584, RRID:CVCL_0031), MDA-MB-231 breast carcinoma (CRL-12532, RRID:CVCL_0062), NCI-H1876 small cell lung carcinoma (CRL-5902, RRID:CVCL_1503), NCI-H510A small cell lung carcinoma (HTB-184, RRID:CVCL_1565), NCI-H1417 (CRL-5869, RRID:CVCL_1469), and NCI-H196 small cell lung carcinoma (CRL-5823, RRID:CVCL_1509). Dr. Peter Houghton (Greehey Children's Cancer Research Institute, University of Texas Health Science Center, San Antonio, TX) provided Rh-18 rhabdomyosarcoma (RRID:CVCL_1659). Pooled donor human umbilical vein endothelial cells (HUVEC, Lonza, cat. CC-2519) and human mesenchymal stem cells (hMSC, Lonza, cat. PT-2501) were purchased from Lonza (Walkersville, MD).
Cell Culture. […]

## Cc1nc(N2CCC3(CC2)COC(C)C3N)c(CO)nc1Sc1ccnc(N)c1Cl (stereo not given) + Cc1c(S(C)(=O)=O)c(-c2cc(F)cc(N3CCN(c4ccc(NS(=O)(=O)c5ccc(NC(CCN6CCC(C(=O)OCCCP(=O)(O)O)CC6)CSc6ccccc6)c(S(=O)(=O)C(F)(F)F)c5)cc4)CC3)c2)c(-c2ccc(Cl)cc2)n1C(C)C
Second compound 0.1 µM
  IC50: > 3 µM
Second compound 0.316 µM
  IC50: > 3 µM
Second compound 1 µM
  IC50: > 3 µM
Second compound 3.16 µM
  IC50: > 3 µM
Second compound 10 µM
  IC50: > 3 µM
Second compound 0.1 µM, first compound 0.00949 µM
  viability, T/C: 126%
Second compound 0.1 µM, first compound 0.03 µM
  viability, T/C: 122%
Second compound 0.1 µM, first compound 0.0949 µM
  viability, T/C: 112%
Second compound 0.1 µM, first compound 0.3 µM
  viability, T/C: 111%
Second compound 0.1 µM, first compound 0.949 µM
  viability, T/C: 128%
Second compound 0.1 µM, first compound 3 µM
  viability, T/C: 117%
Second compound 0.316 µM, first compound 0.00949 µM
  viability, T/C: 125%
Second compound 0.316 µM, first compound 0.03 µM
  viability, T/C: 130%
Second compound 0.316 µM, first compound 0.0949 µM
  viability, T/C: 136%
Second compound 0.316 µM, first compound 0.3 µM
  viability, T/C: 127%
Second compound 0.316 µM, first compound 0.949 µM
  viability, T/C: 111%
Second compound 0.316 µM, first compound 3 µM
  viability, T/C: 132%
Second compound 1 µM, first compound 0.00949 µM
  viability, T/C: 92.8%
Second compound 1 µM, first compound 0.03 µM
  viability, T/C: 139%
Second compound 1 µM, first compound 0.0949 µM
  viability, T/C: 122%
Second compound 1 µM, first compound 0.3 µM
  viability, T/C: 102%
Second compound 1 µM, first compound 0.949 µM
  viability, T/C: 118%
Second compound 1 µM, first compound 3 µM
  viability, T/C: 130%
Second compound 3.16 µM, first compound 0.00949 µM
  viability, T/C: 132%
Second compound 3.16 µM, first compound 0.03 µM
  viability, T/C: 128%
Second compound 3.16 µM, first compound 0.0949 µM
  viability, T/C: 137%
Second compound 3.16 µM, first compound 0.3 µM
  viability, T/C: 123%
Second compound 3.16 µM, first compound 0.949 µM
  viability, T/C: 119%
Second compound 3.16 µM, first compound 3 µM
  viability, T/C: 118%
Second compound 10 µM, first compound 0.00949 µM
  viability, T/C: 133%
Second compound 10 µM, first compound 0.03 µM
  viability, T/C: 123%
Second compound 10 µM, first compound 0.0949 µM
  viability, T/C: 125%
Second compound 10 µM, first compound 0.3 µM
  viability, T/C: 94%
Second compound 10 µM, first compound 0.949 µM
  viability, T/C: 114%
Second compound 10 µM, first compound 3 µM
  viability, T/C: 95.2%

## C#Cc1c(F)ccc2cc(O)cc(-c3ncc4c(N5CC6CCC(C5)N6)nc(OCC56CCCN5CC(F)C6)nc4c3F)c12 (stereo not given) + CCN1C(C(=O)NC23CCC(C(=O)O)(CC2)CC3)C(c2cccc(Cl)c2F)C2(C(=O)Nc3cc(Cl)ccc32)C12CCCCC2
Second compound 0.03 µM
  IC50: > 10 µM
Second compound 0.0949 µM
  IC50: > 10 µM
Second compound 0.3 µM
  IC50: > 10 µM
Second compound 0.949 µM
  IC50: > 10 µM
Second compound 3 µM
  IC50: > 10 µM
Second compound 0.03 µM, first compound 0.0316 µM
  viability, T/C: 118%
Second compound 0.03 µM, first compound 0.1 µM
  viability, T/C: 98.2%
Second compound 0.03 µM, first compound 0.316 µM
  viability, T/C: 92.6%
Second compound 0.03 µM, first compound 1 µM
  viability, T/C: 92.1%
Second compound 0.03 µM, first compound 3.16 µM
  viability, T/C: 105%
Second compound 0.03 µM, first compound 10 µM
  viability, T/C: 110%
Second compound 0.0949 µM, first compound 0.0316 µM
  viability, T/C: 93.8%
Second compound 0.0949 µM, first compound 0.1 µM
  viability, T/C: 100%
Second compound 0.0949 µM, first compound 0.316 µM
  viability, T/C: 103%
Second compound 0.0949 µM, first compound 1 µM
  viability, T/C: 100%
Second compound 0.0949 µM, first compound 3.16 µM
  viability, T/C: 103%
Second compound 0.0949 µM, first compound 10 µM
  viability, T/C: 95.4%
Second compound 0.3 µM, first compound 0.0316 µM
  viability, T/C: 109%
Second compound 0.3 µM, first compound 0.1 µM
  viability, T/C: 113%
Second compound 0.3 µM, first compound 0.316 µM
  viability, T/C: 92.5%
Second compound 0.3 µM, first compound 1 µM
  viability, T/C: 107%
Second compound 0.3 µM, first compound 3.16 µM
  viability, T/C: 91.4%
Second compound 0.3 µM, first compound 10 µM
  viability, T/C: 87.6%
Second compound 0.949 µM, first compound 0.0316 µM
  viability, T/C: 93%
Second compound 0.949 µM, first compound 0.1 µM
  viability, T/C: 108%
Second compound 0.949 µM, first compound 0.316 µM
  viability, T/C: 98%
Second compound 0.949 µM, first compound 1 µM
  viability, T/C: 109%
Second compound 0.949 µM, first compound 3.16 µM
  viability, T/C: 106%
Second compound 0.949 µM, first compound 10 µM
  viability, T/C: 95.1%
Second compound 3 µM, first compound 0.0316 µM
  viability, T/C: 110%
Second compound 3 µM, first compound 0.1 µM
  viability, T/C: 107%
Second compound 3 µM, first compound 0.316 µM
  viability, T/C: 114%
Second compound 3 µM, first compound 1 µM
  viability, T/C: 99.9%
Second compound 3 µM, first compound 3.16 µM
  viability, T/C: 101%
Second compound 3 µM, first compound 10 µM
  viability, T/C: 102%
